The text below walks through data of patent US8871767B2, “2-arylimidazo[1,2-B]pyridazine, 2-phenylimidazo[1,2-A]pyridine, and 2-phenylimidazo[1,2-A]pyrazine derivatives” (Hengrui (USA) Ltd., priority 2010, dated 2014).

SMILES strings stand for the structures. Where two headings read alike, the source gives them in different places.

The test system of assay [1] is Hedgehog pathway activation on 10T1/2/Smo#3 cells (C3H10T1/2 cells transfected with human Smoothened receptor). Put plainly: Hedgehog pathway activation on 10T1/2/Smo#3 cells measured by ALP activity. The settings on record: Mus musculus, C3H 10T1/2, 10T1/2/Smo#3 cells. The class given is cell-based. In a few lines: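 C3H10T1/2 cells stably expressing human Smoothened were activated with hShh-conditioned medium (10-20%) or 500 nM SAG, with test compounds present. Pathway block read as inhibited ALP activity (4-methylumbelliferyl phosphate fluorescence); viability checked by CellTiter-Blue. IC50 values reported.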

The test system of assay [2] is Hedgehog pathway activation (GLi-luciferase reporter) in Shh Light II reporter cells. Put plainly: Hedgehog pathway activation on Shh Light II reporter cells measured by luciferase activity. Type of assay: cell-based. As to conditions: Mus musculus, Shh Light II. In a few lines: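 Shh Light II reporter cells carrying a hedgehog-responsive GLi-luciferase reporter were stimulated either with 500 nM SAG, a direct Smoothened agonist, or with conditioned media containing human Sonic Hedgehog (hShh). Test compounds were evaluated for blocking this pathway activation, quantified by luciferase activity. Cell viability was monitored in parallel with the Celltiter-Blue® assay.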

Where [3] appears, read: measured by ALP activity, read-out: ALP (IC50, inhibition of Hedgehog pathway activation).
Where [4] appears, read: hShh activation, read-out: Shh (IC50, inhibition of Hedgehog pathway activation).
The mark [5] stands for this setting: hShh activation, ALP activity, read-out: 10T1/2/Smo#3 ALP activity (hShh Activation).
The mark [6] stands for this setting: SAG activation (500 nM SAG), read-out: Shh Light II luciferase activity (SAG activation).
[7] abbreviates: hShh activation, read-out: Shh Light II luciferase activity (hShh activation).

For `CCOc1ccc2nc(-c3ccc(C(F)(F)F)c(NC(=O)C(C)(C)C(F)(F)F)c3)cn2n1` [Example 188, N-(5-(6-ethoxyimidazo[1,2-b]pyridazin-2-yl)-2-(trifluoromethyl)phenyl)-3,3,3-trifluoro-2,2-dimethylpropanamide], the IC50 came out at 875 nM in assay [1] (setting [3]) and 1400 nM in assay [2] (setting [4]).
The matching figures for `CN(CCO)c1ccc2nc(-c3ccc(C(F)(F)F)c(NC(=O)C(C)(C)C)c3)cn2n1` [Example 298, N-(5-(6-((2-hydroxyethyl)(methyl)amino)imidazo[1,2-b]pyridazin-2-yl)-2-(trifluoromethyl)phenyl)pivalamide]: 612 nM and 403 nM.
With `CC(C)(C)C(=O)Nc1cc(-c2cn3cc(-c4ccccc4F)ncc3n2)ccc1C(F)(F)F` [Example 86, N-(5-(6-(2-fluorophenyl)imidazo[1,2-a]pyrazin-2-yl)-2-(trifluoromethyl)phenyl)pivalamide], the IC50 in assay [1] (setting [5]) is below 300 nM; in assay [1] (setting [3]), 547 nM; in assay [2] (setting [6]) it was 300 to 3000 nM; in assay [2] (setting [4]), 530 nM; in assay [2] (setting [7]), below 300 nM.
As for `Cc1ccc(-c2cn3nc(-c4cc(C(F)(F)F)ccc4F)ccc3n2)cc1NC(=O)C(C)(C)C` [Example 221, N-(5-(6-(2-fluoro-5-(trifluoromethyl)phenyl)imidazo[1,2-b]pyridazin-2-yl)-2-methylphenyl)pivalamide], the IC50 came to 105 nM in assay [1] (setting [3]) and 86 nM in assay [2] (setting [4]).
The matching figures for `COc1ccncc1-c1ccc2nc(-c3ccc(C(F)(F)F)c(NC(=O)C(C)(C)C)c3)cn2n1` [Example 384, N-(5-(6-(4-methoxypyridin-3-yl)imidazo[1,2-b]pyridazin-2-yl)-2-(trifluoromethyl)phenyl)pivalamide]: 227 nM and 689 nM.
The matching figures for `CCOc1ccc2nc(-c3ccc(C(F)(F)F)c(S(=O)(=O)NC)c3)cn2n1` [Example 217, 5-(6-ethoxyimidazo[1,2-b]pyridazin-2-yl)-N-methyl-2-(trifluoromethyl)benzenesulfonamide]: 535 nM and 6600 nM.
For `CC(C)(C)C(=O)Nc1cc(-c2cn3ncccc3n2)ccc1Cl` [Example 113, N-(2-chloro-5-(imidazo[1,2-b]pyridazin-2-yl)phenyl)pivalamide], the IC50 in assay [1] (setting [5]) is 300 to 3000 nM; in assay [1] (setting [3]) it was 1560 nM; in assay [2] (setting [6]), 3000 to 30000 nM; in assay [2] (setting [4]) it was 1000 nM; in assay [2] (setting [7]) it was 300 to 3000 nM.
For `CC(C)CNc1ccc2nc(-c3ccc(C(F)(F)F)c(NC(=O)C(C)(C)C)c3)cn2n1` [Example 302, N-(5-(6-(isobutylamino)imidazo[1,2-b]pyridazin-2-yl)-2-(trifluoromethyl)phenyl)pivalamide], the IC50 in assay [1] (setting [3]) is 443 nM; in assay [2] (setting [4]), 522 nM.
On to `COc1ccccc1Oc1ccc2nc(-c3ccc(C(F)(F)F)c(NC(=O)C(C)(C)C)c3)cn2n1` [Example 197, N-(5-(6-(2-methoxyphenoxy)imidazo[1,2-b]pyridazin-2-yl)-2-(trifluoromethyl)phenyl)pivalamide], for which the IC50 in assay [1] (setting [3]) is 875 nM; in assay [2] (setting [4]), 357 nM.
With `Cc1c(-c2ccccc2)nc2ccc(N3CCNCC3)nn12` [Example 145, 3-methyl-2-phenyl-6-(piperazin-1-yl)imidazo[1,2-b]pyridazine], the IC50 in assay [1] (setting [5]) was 3000 to 30000 nM; in assay [1] (setting [3]), 4780 nM; in assay [2] (setting [6]), 3000 to 30000 nM; in assay [2] (setting [4]), 5440 nM; in assay [2] (setting [7]), 3000 to 30000 nM.
In the case of `CC(C)(C)C(=O)Nc1cc(-c2cn3nc(N4CCCC(C(F)(F)F)C4)ccc3n2)ccc1C(F)(F)F` (stereo not shown) [Example 356, N-(2-(trifluoromethyl)-5-(6-(3-(trifluoromethyl)piperidin-1-yl)imidazo[1,2-b]pyridazin-2-yl)phenyl)pivalamide], the IC50 was determined as 514 nM in assay [1] (setting [3]) and 309 nM in assay [2] (setting [4]).
The matching figures for `CC(C)(C)C(=O)Nc1cc(-c2cn3nc(C4CC4)ccc3n2)ccc1C(F)(F)F` [Example 139, N-(5-(6-cyclopropylimidazo[1,2-b]pyridazin-2-yl)-2-(trifluoromethyl)phenyl)pivalamide]: 451 nM and 186 nM.
The matching figures for `CCCC(C)(C)C(=O)Nc1cc(-c2cn3nc(-c4cccnc4C(F)(F)F)ccc3n2)ccc1Cl` [Example 667, N-(2-chloro-5-(6-(2-(trifluoromethyl)pyridin-3-yl)imidazo[1,2-b]pyridazin-2-yl)phenyl)-2,2-dimethylpentanamide]: 203 nM and 64 nM.
With `CC(C)(C)C(=O)Nc1cc(-c2cn3nc(N4CCN(S(C)(=O)=O)CC4)ccc3n2)ccc1C(F)(F)F` [Example 234, N-(5-(6-(4-(methylsulfonyl)piperazin-1-yl)imidazo[1,2-b]pyridazin-2-yl)-2-(trifluoromethyl)phenyl)pivalamide], the IC50 in assay [1] (setting [3]) came out at 230 nM; in assay [2] (setting [4]) it was 547 nM.
The matching figures for `Cc1ccc(-c2cn3nc(-c4cccnc4C(F)(F)F)ccc3n2)cc1NC(=O)C1CCCN1` (stereo not shown) [Example 645, N-(2-methyl-5-(6-(2-(trifluoromethyl)pyridin-3-yl)imidazo[1,2-b]pyridazin-2-yl)phenyl)pyrrolidine-2-carboxamide]: 155 nM and 589 nM.
`Cc1ccc(-c2cn3nc(-c4c(F)cccc4C(F)(F)F)ccc3n2)cc1NC(=O)C(C)(C)C` [Example 397, N-(5-(6-(2-fluoro-6-(trifluoromethyl)phenyl)imidazo[1,2-b]pyridazin-2-yl)-2-methylphenyl)pivalamide]: the IC50 is below 300 nM in assay [1] (setting [5]); 315 nM in assay [1] (setting [3]); below 300 nM in assay [2] (setting [6]); 73 nM in assay [2] (setting [4]); below 300 nM in assay [2] (setting [7]).
Turning to `Cc1ccc(-c2cn3nc(-c4ccc(C=CC(=O)NOC5CCCCO5)cc4)ccc3n2)cc1NC(=O)C(C)(C)C` (stereo not shown) [compound 558], the IC50 in assay [1] (setting [3]) worked out at 1060 nM; in assay [2] (setting [4]), 391 nM.
For `CC(C)(C)C(=O)Nc1cc(-c2cn3nc(-c4cccc(C(F)(F)F)c4)ccc3n2)ccc1C(F)(F)F` [Example 223, N-(2-(trifluoromethyl)-5-(6-(3-(trifluoromethyl)phenyl)imidazo[1,2-b]pyridazin-2-yl)phenyl)pivalamide], the IC50 in assay [1] (setting [3]) was determined as 289 nM; in assay [2] (setting [4]), 97 nM.
Regarding `Cc1ccc(-c2cn3nc(-c4ccc(C(N)=NO)cc4F)ccc3n2)cc1NC(=O)C(C)(C)C` [compound 567], the IC50 was 298 nM in assay [1] (setting [3]) and 219 nM in assay [2] (setting [4]).
For the compound `Cc1c(-c2ccccc2)nc2ccc(NC3CCN(Cc4ccccc4)CC3)nn12` [Example 168, N-(1-benzylpiperidin-4-yl)-3-methyl-2-phenylimidazo[1,2-b]pyridazin-6-amine], the IC50 is 300 to 3000 nM in assay [1] (setting [5]); 2980 nM in assay [1] (setting [3]); 300 to 3000 nM in assay [2] (setting [6]); 1920 nM in assay [2] (setting [4]); 300 to 3000 nM in assay [2] (setting [7]).
As for `CC(C)(C)CC(=O)Nc1cc(-c2cn3nc(-c4cccnc4C(F)(F)F)ccc3n2)ccc1Cl` [Example 672, N-(2-chloro-5-(6-(2-(trifluoromethyl)pyridin-3-yl)imidazo[1,2-b]pyridazin-2-yl)phenyl)-3,3-dimethylbutanamide], the values for the IC50 in assay [1] (setting [3]) and in assay [2] (setting [4]) were 565 nM and 86 nM, respectively.
Consider `Cc1ccc(-c2nc3ccc(-c4cccnc4C(F)(F)F)nn3c2Cl)cc1NC(=O)C(C)(C)C` [Example 641, N-(5-(3-chloro-6-(2-(trifluoromethyl)pyridin-3-yl)imidazo[1,2-b]pyridazin-2-yl)-2-methylphenyl)pivalamide], for which the IC50 in assay [1] (setting [3]) amounted to 34 nM; in assay [2] (setting [4]) it was 76 nM.
The matching figures for `CC(C)(C)C(=O)Nc1cc(-c2cn3nc(N4CC[C@H](O)C4)ccc3n2)ccc1C(F)(F)F` [Example 340, (S)-N-(5-(6-(3-hydroxypyrrolidin-1-yl)imidazo[1,2-b]pyridazin-2-yl)-2-(trifluoromethyl)phenyl)pivalamide]: 114 nM and 115 nM.
The matching figures for `Cc1ccc(-c2cn3nc(-c4cccc(OCC(=O)NO)c4C(F)(F)F)ccc3n2)cc1NC(=O)C(C)(C)C` [Example 439, N-(5-(6-(3-(2-(hydroxyamino)-2-oxoethoxy)-2-(trifluoromethyl)phenyl)imidazo[1,2-b]pyridazin-2-yl)-2-methylphenyl)pivalamide]: 746 nM and 365 nM.
On to `CC(C)(C)C(=O)Nc1cc(-c2cn3nc(Oc4ccccc4F)ccc3n2)ccc1C(F)(F)F` [Example 195, N-(5-(6-(2-fluorophenoxy)imidazo[1,2-b]pyridazin-2-yl)-2-(trifluoromethyl)phenyl)pivalamide], for which the IC50 in assay [1] (setting [3]) was found to be 718 nM; in assay [2] (setting [4]), 267 nM.
With `O=C(Nc1cc(-c2cn3nc(-c4cccnc4C(F)(F)F)ccc3n2)ccc1Cl)N1CCCC1` [Example 656, N-(2-chloro-5-(6-(2-(trifluoromethyl)pyridin-3-yl)imidazo[1,2-b]pyridazin-2-yl)phenyl)pyrrolidine-1-carboxamide], the IC50 in assay [1] (setting [3]) was 117 nM; in assay [2] (setting [4]), 38 nM.
